From publication PMC5333804, “Comparison of pancreatic lipase inhibitory isoflavonoids from unripe and ripe fruits of Cudrania tricuspidata” (PLoS ONE, 2017)

target: T1, porcine pancreatic lipase (Sus scrofa, UniProt P00591); assay: p-nitrophenyl butyrate hydrolysis assay, % inhibition at […]; assay type: biochemical
T1 construct: gene PNLIP
T1 sequence (P00591 1-450): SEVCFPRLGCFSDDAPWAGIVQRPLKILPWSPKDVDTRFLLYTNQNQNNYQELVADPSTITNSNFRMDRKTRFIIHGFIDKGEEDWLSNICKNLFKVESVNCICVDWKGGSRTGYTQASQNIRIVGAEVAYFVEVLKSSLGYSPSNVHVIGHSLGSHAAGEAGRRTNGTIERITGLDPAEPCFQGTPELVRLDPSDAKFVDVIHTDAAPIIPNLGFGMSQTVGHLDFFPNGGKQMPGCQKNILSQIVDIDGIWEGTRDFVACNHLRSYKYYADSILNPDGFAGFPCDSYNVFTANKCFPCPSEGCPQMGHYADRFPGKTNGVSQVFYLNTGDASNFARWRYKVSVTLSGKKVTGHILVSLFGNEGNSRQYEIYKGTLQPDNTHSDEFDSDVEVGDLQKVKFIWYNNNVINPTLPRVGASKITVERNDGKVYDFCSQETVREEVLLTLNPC

SMILES | inhibition at 100 µM [%]
O=c1c(-c2ccc(O)cc2)coc2cc(O)cc(O)c12 [compound 1, genistein] | 60.7
CC(C)=CCc1c(O)cc2occ(-c3ccc(O)cc3)c(=O)c2c1O [compound 9, wighteone] | 65.7
CC(C)=CCc1c(O)c(CC=C(C)C)c2occ(-c3ccc(O)c(O)c3)c(=O)c2c1O [compound 12, 5,7,3',4'-tetrahydroxy-6-8-diprenylisoflavone] | 92.8
CC(C)=CCc1c2c(c(O)c3c(=O)c(-c4ccc(O)cc4)coc13)C=CC(C)(C)O2 [compound 16, scandenone] | > 50

More lines, now with the values ahead:

inhibition at 100 µM [%] | SMILES
> 50 | CC1(C)C=Cc2c(cc3occ(-c4ccc(O)c(O)c4)c(=O)c3c2O)O1 [compound 15, 5,3',4'-trihydroxy-6'',6''-dimethylpyrano-[2'',3'';7,6]isoflavone]
68.2 | CC1(C)C=Cc2c(cc(O)c3c(=O)c(-c4ccc(O)cc4)coc23)O1 [compound 17, derrone]

target: T1, porcine pancreatic lipase; assay: p-nitrophenyl butyrate hydrolysis assay; Lineweaver-Burk analysis; assay type: biochemical

IC50 [µM] | SMILES
16.8 | CC1(C)C=Cc2c(cc(O)c3c(=O)c(-c4ccc(O)c(O)c4)coc23)O1 [compound 19, 5,3',4'-trihydroxy-2", 2"-dimethylpyrano (5",6":7,8) isoflavone]
